Experimental data as given in patent US10975068B2, “6-aminopyridin-3-yl thiazoles as modulators of RORγT” (Janssen Pharmaceutica NV, priority 2016, dated 2021).
Where two headings read alike, the source gives them in different places.

Key:
full-length human RORγt = full-length human RORγt (Homo sapiens (Human), UniProt P51449); test: RORγt (full-length human) reporter assay, Conditions B or C; format: cell-based; details: for inhibition at 3 µM: at 3 μM compound concentration; for inhibition at 3 µM / inhibition at 1 µM: read-out: RORγt (FL) Reporter Assay B or C, % inhibition; for inhibition at 1 µM: at 1 μM compound concentration
In short: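 Readout is dual luciferase: firefly (GAL4-driven) normalized to DMSO-only and saturating-reference controls, then to CMV-Renilla. Full-length human RORγt fused to GAL4-DBD was transiently expressed in HEK293T; compound exposure ran overnight (16-20 h) starting 4-6 h after transfection, final FBS 1.3%, DMSO 0.1%.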

[1] = target: human RORγt ligand binding domain (RORγt LBD) (Homo sapiens (Human), UniProt P51449); test: RORγt ThermoFluor® assay (thermal shift binding); details: read-out: ThermoFluor® Assay, Kd
In short: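 Binding was inferred from thermal stabilisation (ΔTm) of the E. coli-expressed RORγt LBD (0.065 mg/mL), monitored by 1,8-ANS (60 μM) emission at 500 nm during a 1 °C/min ramp. Buffer was Hepes 100 mM pH 7.0 with NaCl, GSH and Tween-20.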

[2] = read-out: RORγt (FL) Reporter Assay B or C, IC50
[3] = RORγt (FL) Reporter Assay B or C, IC50

human RORγt ligand binding domain (RORγt LBD), sequence (P51449 other isoform, or with tags, fused parts or gaps): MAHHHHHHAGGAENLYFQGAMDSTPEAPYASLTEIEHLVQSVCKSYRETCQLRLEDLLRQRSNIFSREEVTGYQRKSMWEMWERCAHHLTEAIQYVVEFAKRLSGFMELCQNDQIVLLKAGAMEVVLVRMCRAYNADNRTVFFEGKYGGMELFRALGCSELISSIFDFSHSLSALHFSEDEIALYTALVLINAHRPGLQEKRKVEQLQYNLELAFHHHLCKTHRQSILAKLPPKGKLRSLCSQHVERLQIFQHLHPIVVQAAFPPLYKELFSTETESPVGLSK
full-length human RORγt, sequence (P51449 other isoform, or with tags, fused parts or gaps): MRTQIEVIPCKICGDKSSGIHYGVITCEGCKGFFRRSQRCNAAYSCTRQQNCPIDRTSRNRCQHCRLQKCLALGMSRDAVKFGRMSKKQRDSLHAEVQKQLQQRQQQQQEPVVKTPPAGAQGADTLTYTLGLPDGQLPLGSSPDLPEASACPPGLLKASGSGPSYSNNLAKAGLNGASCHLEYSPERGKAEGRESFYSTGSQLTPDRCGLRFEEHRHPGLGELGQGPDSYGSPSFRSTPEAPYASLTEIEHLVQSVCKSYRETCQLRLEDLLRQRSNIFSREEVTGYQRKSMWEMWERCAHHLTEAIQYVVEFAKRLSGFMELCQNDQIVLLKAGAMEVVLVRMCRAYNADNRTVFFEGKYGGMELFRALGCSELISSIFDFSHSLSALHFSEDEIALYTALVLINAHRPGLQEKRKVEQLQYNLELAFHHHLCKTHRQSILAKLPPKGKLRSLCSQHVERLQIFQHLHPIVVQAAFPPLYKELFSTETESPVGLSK

| inhibition at 3 µM (full-length human RORγt) [%] | IC50 (full-length human RORγt; [2]) [nM] | Kd [1] [nM] | SMILES | IC50 (full-length human RORγt; [3]) [nM] | inhibition at 1 µM (full-length human RORγt) [%] |
| --- | --- | --- | --- | --- | --- |
| 100 | 120 | 15 | CC[C@@H](CO)NC(=O)c1nc(C(=O)N2CCC[C@@H]2C)c(-c2cnc(N[C@@H](C)C(F)(F)F)cc2C(F)F)s1 [Example 407, 5-[4-(Difluoromethyl)-6-[[(1S)-2,2,2-trifluoro-1-methyl-ethyl]amino]-3-pyridyl]-N-[(1S)-1-(hydroxymethyl)propyl]-4-[(2S)-2-methylpyrrolidine-1-carbonyl]thiazole-2-carboxamide] | – | – |
| 83 | 73 | 3.8 | CC[C@H](CO)NC(=O)c1nc(C(=O)N2CCC[C@@H]2C)c(-c2cnc(N[C@@H](C)C(F)(F)F)cc2C(F)F)s1 [Example 408, 5-[4-(Difluoromethyl)-6-[[(1S)-2,2,2-trifluoro-1-methyl-ethyl]amino]-3-pyridyl]-N-[(1R)-1-(hydroxymethyl)propyl]-4-[(2S)-2-methylpyrrolidine-1-carbonyl]thiazole-2-carboxamide] | – | – |
| 103 | 36 | 6.3 | C[C@H](Nc1cc(C(F)F)c(-c2sc(C(=O)NC3CN(S(C)(=O)=O)C3)nc2C(=O)N2CCC[C@@H]2C)cn1)C(F)(F)F [Example 409, 5-[4-(Difluoromethyl)-6-[[(1S)-2,2,2-trifluoro-1-methyl-ethyl]amino]-3-pyridyl]-4-[(2S)-2-methylpyrrolidine-1-carbonyl]-N-(1-methylsulfonylazetidin-3-yl)thiazole-2-carboxamide] | – | – |
| 97 | 18 | 1.1 | C[C@H](Nc1cc(C(F)F)c(-c2sc(C(=O)N[C@@H]3CC[C@@H](O)C3)nc2C(=O)N2CC(F)(F)C[C@@H]2C)cn1)C(F)(F)F [Example 410, 4-[(2S)-4,4-Difluoro-2-methyl-pyrrolidine-1-carbonyl]-5-[4-(difluoromethyl)-6-[[(1S)-2,2,2-trifluoro-1-methyl-ethyl]amino]-3-pyridyl]-N-[(1R,3R)-3-hydroxycyclopentyl]thiazole-2-carboxamide] | – | – |
| 127 | 37 | 3.4 | C[C@H]1CCCN1C(=O)c1nc(C(=O)NC2CCOCC2)sc1-c1cnc(NC(C)(C)C)cc1C(F)F [Example 412, 5-[6-(tert-Butylamino)-4-(difluoromethyl)-3-pyridyl]-4-[(2S)-2-methylpyrrolidine-1-carbonyl]-N-tetrahydropyran-4-yl-thiazole-2-carboxamide] | – | – |
| 110 | 13 | 1.7 | C[C@H]1CCCN1C(=O)c1nc(C(=O)N[C@H]2CC[C@H](O)C2)sc1-c1cnc(NC(C)(C)C)cc1C(F)F [Example 414, 5-[6-(tert-Butylamino)-4-(difluoromethyl)-3-pyridyl]-N-[(1S,3S)-3-hydroxycyclopentyl]-4-[(2S)-2-methylpyrrolidine-1-carbonyl]thiazole-2-carboxamide] | – | – |
| 97 | 64 | 1.1 | C[C@H](Nc1cc(C(F)F)c(-c2sc(C(=O)N[C@H]3CC[C@H](O)C3)nc2C(=O)N2CC(F)(F)C[C@@H]2C)cn1)C(F)(F)F [Example 415, 4-[(2S)-4,4-Difluoro-2-methyl-pyrrolidine-1-carbonyl]-5-[4-(difluoromethyl)-6-[[(1S)-2,2,2-trifluoro-1-methyl-ethyl]amino]-3-pyridyl]-N-[(1S,3S)-3-hydroxycyclopentyl]thiazole-2-carboxamide] | – | – |
| – | 37 | 0.43 | CC[C@H](Nc1cc(C(F)F)c(-c2sc(C(=O)N[C@H]3CC[C@H](O)C3)nc2C(=O)N2CC(F)(F)C[C@@H]2C)cn1)C(F)(F)F [Example 416, 4-[(2S)-4,4-Difluoro-2-methyl-pyrrolidine-1-carbonyl]-5-[4-(difluoromethyl)-6-[[(1S)-1-(trifluoromethyl)propyl]amino]-3-pyridyl]-N-[(1S,3S)-3-hydroxycyclopentyl]thiazole-2-carboxamide] | – | 89 |
| 105 | 32 | 0.77 | C[C@H](Nc1cc(C(F)F)c(-c2sc(C(=O)N[C@H]3CCC[C@@H]3O)nc2C(=O)N2CC(F)(F)C[C@@H]2C)cn1)C(F)(F)F [Example 418, 4-[(2S)-4,4-Difluoro-2-methyl-pyrrolidine-1-carbonyl]-5-[4-(difluoromethyl)-6-[[(1S)-2,2,2-trifluoro-1-methyl-ethyl]amino]-3-pyridyl]-N-[(1S,2S)-2-hydroxycyclopentyl]thiazole-2-carboxamide] | – | – |
| 84 | 34 | 0.21 | CC[C@H](Nc1cc(C(F)F)c(-c2sc(C(=O)N[C@H]3CCC[C@@H]3O)nc2C(=O)N2CC(F)(F)C[C@@H]2C)cn1)C(F)(F)F [Example 419, 4-[(2S)-4,4-Difluoro-2-methyl-pyrrolidine-1-carbonyl]-5-[4-(difluoromethyl)-6-[[(1S)-1-(trifluoromethyl)propyl]amino]-3-pyridyl]-N-[(1S,2S)-2-hydroxycyclopentyl]thiazole-2-carboxamide] | – | – |
| 103 | 32 | 0.73 | C[C@H](Nc1cc(C(F)F)c(-c2sc(C(=O)N[C@@H]3CCC[C@H]3O)nc2C(=O)N2CC(F)(F)C[C@@H]2C)cn1)C(F)(F)F [Example 420, 4-[(2S)-4,4-Difluoro-2-methyl-pyrrolidine-1-carbonyl]-5-[4-(difluoromethyl)-6-[[(1S)-2,2,2-trifluoro-1-methyl-ethyl]amino]-3-pyridyl]-N-[(1R,2R)-2-hydroxycyclopentyl]thiazole-2-carboxamide] | – | – |

| SMILES | inhibition at 3 µM (full-length human RORγt) [%] | IC50 (full-length human RORγt; [2]) [nM] | Kd [1] [nM] | IC50 (full-length human RORγt; [3]) [nM] | inhibition at 1 µM (full-length human RORγt) [%] |
| --- | --- | --- | --- | --- | --- |
| C[C@H](Nc1cc(C(F)F)c(-c2sc(C(=O)N[C@H]3CC[C@H](O)C3)nc2C(=O)N2C3CCC2CC3)cn1)C(F)(F)F [Example 411, 4-((1s,4s)-7-Azabicyclo[2.2.1]heptane-7-carbonyl)-5-[4-(difluoromethyl)-6-[[(1S)-2,2,2-trifluoro-1-methyl-ethyl]amino]-3-pyridyl]-N-[(1S,3S)-3-hydroxycyclopentyl]thiazole-2-carboxamide] | 100 | 110 | 3.6 | – | – |
| CC(C)(C)Nc1cc(C(F)F)c(-c2sc(C(=O)N[C@H]3CC[C@H](O)C3)nc2C(=O)N2C3CCC2CC3)cn1 [Example 413, 4-((1s,4s)-7-Azabicyclo[2.2.1]heptane-7-carbonyl)-5-[6-(tert-butylamino)-4-(difluoromethyl)-3-pyridyl]-N-[(1S,3S)-3-hydroxycyclopentyl]thiazole-2-carboxamide] | – | – | 0.82 | 20 | 133 |
| O=C(N[C@H]1COC[C@@H]1O)c1nc(C(=O)N2C3CCC2CC3)c(-c2cnc(N[C@@H](C3CC3)C(F)(F)F)cc2C(F)F)s1 [Example 417, 4-((1s,4s)-7-Azabicyclo[2.2.1]heptane-7-carbonyl)-5-[6-[[(1S)-1-cyclopropyl-2,2,2-trifluoro-ethyl]amino]-4-(difluoromethyl)-3-pyridyl]-N-[(3S,4R)-4-hydroxytetrahydrofuran-3-yl]thiazole-2-carboxamide] | – | – | 2.4 | 28 | 94 |
